Where two headings read alike, the source gives them in different places.
How the values were obtained:
Assay in all cases: spectral binding titration
CYP11A1 [1] = molecular target: T1, CYP11A1 (Bos taurus, UniProt P00189)
T1 sequence (P00189 40-520): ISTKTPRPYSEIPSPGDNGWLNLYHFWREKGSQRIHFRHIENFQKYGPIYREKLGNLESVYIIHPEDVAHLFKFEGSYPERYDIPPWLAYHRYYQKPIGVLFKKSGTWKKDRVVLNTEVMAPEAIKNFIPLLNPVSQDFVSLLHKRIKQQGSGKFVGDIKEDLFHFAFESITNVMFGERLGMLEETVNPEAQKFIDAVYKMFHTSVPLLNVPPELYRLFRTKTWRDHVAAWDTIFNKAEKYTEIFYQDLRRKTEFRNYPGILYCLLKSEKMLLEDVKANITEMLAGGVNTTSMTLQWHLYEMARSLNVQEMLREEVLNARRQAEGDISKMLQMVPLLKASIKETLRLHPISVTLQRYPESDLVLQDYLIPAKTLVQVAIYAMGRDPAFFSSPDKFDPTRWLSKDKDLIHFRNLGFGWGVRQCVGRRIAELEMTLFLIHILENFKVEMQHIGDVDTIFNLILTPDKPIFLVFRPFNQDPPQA

CYP11A1 [2] = molecular target: T1, CYP11A1; remark: listed apart in the source
CYP11A1 [3] = molecular target: T1, CYP11A1; remark: listed apart in the source

Compound | Kd (CYP11A1 [1]) [µM] | Kd (CYP11A1 [2]) [µM] | also measured
Cc1cccc([C@H](C)c2cnc[nH]2)c1C [Dexmedetomidine] | 7 |  | 
CC[C@@H]([C@H](C)O)n1ncn(-c2ccc(N3CCN(c4ccc(OC[C@@H]5CO[C@@](Cn6cncn6)(c6ccc(F)cc6F)C5)cc4)CC3)cc2)c1=O [Posaconazole] |  | 1 | 
CC(=O)N1CCN(c2ccc(OC[C@H]3CO[C@@](Cn4ccnc4)(c4ccc(Cl)cc4Cl)O3)cc2)CC1 (racemic) [Ketoconazole] |  | 1.5 | 
CC(C)CCC[C@@H](C)[C@H]1CC[C@H]2[C@@H]3CC=C4C[C@@H](O)CC[C@]4(C)[C@H]3CC[C@]12C [cholesterol] |  |  | Kd (CYP11A1 [3]): 0.2 µM
NC(=NCc1ccc(Cl)cc1)SCCCc1cnc[nH]1 [Clobenpropit] | 18 |  | 
